We go through 2 molecules from patent publication US20160318844A1, “PROSTACYCLIN COMPOUNDS, COMPOSITIONS AND METHODS OF USE THEREOF” (Insmed Incorporated, priority 2015, published 2016).

Where two headings read alike, the source gives them in different places.

Usually EC50 stands for the concentration giving half of the maximal effect. The solubility is how much of the substance goes into solution per volume.

Series [1] is described as follows: Treprostinil alkyl ester conversion to treprostinil in rat lung tissue homogenate. Format: in vitro ADME. The settings on record: 37° C., 200 nM, 10 mg/mL of protein. The method, then:
Here, data were calculated based on fit of exponential increase to the maximum (experiments performed in duplicate). The results of this study are provided below in Table 2A and FIG. 37. […] In this experiment, treprostinil alkyl esters were incubated for 4 hours at a final concentration of 200 nM in 1 mL of tissue homogenate prepared in water and normalized to 10 mg/mL of protein.
C12-TR was incubated for 4 hours at a final concentration of 200 nM in 1 mL of tissue homogenate prepared in water and normalized to 10 mg/mL of protein. Both FIG. 37 experiments (eft and right graphs) were performed in duplicate and the lines represent nonlinear exponential regression assuming 1 phase decay. Table 2A. Rate of treprostinil alkyl ester conversion in the presence of rat, dog or monkey lung tissue homogenate.

Another series addresses T1, EP2 prostanoid receptor (Homo sapiens, UniProt P43116).
T1 construct: host or cells: CHO-K1
The series can be described thus: GloSensor cAMP assay in CHO-K1 cells co-transfected with the EP2 receptor. In kind it is cell-based. From the text:
cAMP is a second messenger involved in signal transduction of G-protein coupled receptors (GPCRs) acting through Gα-s and Gα-i proteins. Because the treprostinil receptor is a GPCR, the assay provides an indication of whether the respective prostacyclin compound (or metabolite thereof) binds its receptor and activates the GPCR cell signaling cascade. The GloSensorTM assay harnesses a genetically modified form of firefly luciferase into which a cAMP-binding protein moiety has been inserted. Upon binding of cAMP, a conformational change is induced leading to increased light output. The EP2 prostanoid receptor was cotransfected with the GioSensorm plasmid (Promega) into CHO-K cells as follows. CHO-K cells were harvested when the monoloayer was at 50-90% confluence. First, cells were washed with 5 mL PBS. […] The media was aspirated, and the cell pellet was resuspended in 10 mL of growth media. Cell number was determined using a hemacytometer. […] For small scale transfections of up to 20 wells, the pGLoSensor-22F cAMP plasmid (Promega, Cat #: E2301) (2 apg): […] Cat #: […] P2271) ratio was diluted to a final concentration of 12.6 ng/μL (total plasmid) in Opti-MEM I reduced-serum medium (Life Technologies, Cat #: 1985062). Next, 6 μL of FuGENE HD transfection reagent (Promega, Cat #: E2311) was added to 160 μL of diluted plasmid and mixed carefully by gentle pipetting. The complex was incubated at room temperature for 0 to 10 minutes, and then 8 μL of the complex was added per well of a 96 well white assay plate (Costar, Cat #: 3917) and gently mixed without disturbing the cell monolayer. […] Following incubation, cells were treated and analyzed. For larger scale transfections, the aforementioned steps were scaled up accordingly, and cells were frozen following the last incubation. In order to prepare frozen transfected CHO-K cells, the media was aspirated from culture flasks and cells were rinsed with 5 mL PBS. […] Cell number was determined using a hemacytometer. The media was aspirated, and the cell pellet was resuspended in freezing media (Millipore, cat #: S-002-SF) at 2.5×10^4 cells/vial. Transfected cells were incubated overnight at -80° C. before transfer to liquid nitrogen for long term storage. […] SH30071.03)). […] In preparation for cAMP measurement, the cells were equilibrated with the GloSensor cAMP reagent prior to treatment. For equilibration, the medium was carefully removed from the individual well. Next, 100 μL of equilibration medium ([…] of Glosensor Reagent stock solution (Promega, Cat #: E291), 10% FBS (Hydone, Cat #: SH30071.03) and 88% CO2 independent medium (Life Technologies, Cat #: 18045088)) was added per well of the 96-well plate, and added to the side of each well. The plate was then incubated for 2 hours at room temperature. A first pre-read measurement was taken using a microplate reader (MicroLumat Plus). Plates were incubated for an additional 10 minutes at room temperature, followed by a second pre-read measurement. […] Following treatment, each plate was read every 5 minutes for the duration of the assay using a microplate reader (MicroLumat Plus). In order to determine the fold change in cAMP relative to the control, the transfection efficiency was first determined by dividing the second pre-read measurement by the average of the corresponding pre-read measurements. Next, the normalized relative light units (RLUs) of the samples were determined by dividing the plate read measurement by the transfection efficiency. The fold change in cAMP relative to the control was then determined by dividing the normalized RLU of the samples by the normalized RLU of the control. The cAMP assay was validated using free treprostinil. […] Luminescence was then measured at room temperature. […] Nebulizer Aeroneb Pro (Aerogen) was used to nebulize treprostinil derivative compositions. Desired volume of the formulation (usually 3 mL) was loaded to the mesh head of the nebulizer. […]

Another series relates to beagle dogs. The series can be described thus: Clinical signs in dogs after inhalation. As to conditions: targeted dose of 18 μg/kg. On the procedure: Dosimetry was performed in propofol-anesthetized dogs in which nebulized drugs were introduced into a mixing chamber interposed on the inspiratory limb of a canine respirator. Technical trials were performed before each experiment to measure the concentration of drug (μg/L) delivered for each breath. The inhaled drug dose (μg/kg) was calculated using the formula: Inhaled Drug Dose (μg/kg)=Drug Conc. (μg/L)×Minute Ventilation (L/min.)×Time (min.)/Body Weight (kg). […] Clinical signs were monitored over this 72 hr. period.
Dosimetry was performed in propofol-anesthetized, artificially ventilated dogs in which nebulized drugs were introduced into a mixing chamber interposed on the inspiratory limb of the respirator. Technical trials were performed before each experiment measuring the concentration of drug (μg/L) per breath, minute ventilation and time required to achieve a targeted pulmonary dose. […] Clinical signs (cough, rapid shallow breathing, emesis and pale gums) were also monitored.

The next series can be described thus: physchem. The settings on record: organic solvent or mixture, thermodynamic from solid. On the procedure: Selected treprostinil derivatives were evaluated for the use in a metered dose inhaler (MDI).
5 mg of each treprostinil compound was added in a glass bottle. Specific amount of ethanol was added by weight. An MDI valve was crimped to each bottle, and HFA propellant added through the valve to the total volume of 5 mL. Compounds were allowed to dissolve for 24 hours at room temperature. The formulations were assessed visually for solubility. The goal was to estimate the minimum ethanol concentration required to solubilize each compound in propellant.
Soluble samples presented as clear and colorless solutions. […] Non-soluble samples had white precipitate or crystals formed. Ethanol was added as a solubility aid.

[2] abbreviates: 4.5 hr incubation time, read-out: EC50 (μM) 4.5 hr.
The mark [3] stands for this setting: 6.0 hr incubation time, read-out: EC50 (μM) 6.0 hr.
The mark [4] stands for this setting: 8.0 hr incubation time, read-out: EC50 (μM) 8.0 hr.
Setting [5] is: EC50 (μM) 0.5 hr, 0.5 hr incubation time.
The mark [6] stands for this setting: EC50 (μM) 1.0 hr, 1.0 hr incubation time.
Where [7] appears, read: EC50 (μM) 2.0 hr, 2.0 hr incubation time.
[8] abbreviates: EC50 (μM) 3.0 hr, 3.0 hr incubation time.
Setting [9] is: EC50 (μM) 4.0 hr, 4.0 hr incubation time.
Where [10] appears, read: EC50 (μM) 5.0 hr, 5.0 hr incubation time.
The mark [11] stands for this setting: EC50 (μM) 7.0 hr, 7.0 hr incubation time.

T1 sequence (P43116 whole entry): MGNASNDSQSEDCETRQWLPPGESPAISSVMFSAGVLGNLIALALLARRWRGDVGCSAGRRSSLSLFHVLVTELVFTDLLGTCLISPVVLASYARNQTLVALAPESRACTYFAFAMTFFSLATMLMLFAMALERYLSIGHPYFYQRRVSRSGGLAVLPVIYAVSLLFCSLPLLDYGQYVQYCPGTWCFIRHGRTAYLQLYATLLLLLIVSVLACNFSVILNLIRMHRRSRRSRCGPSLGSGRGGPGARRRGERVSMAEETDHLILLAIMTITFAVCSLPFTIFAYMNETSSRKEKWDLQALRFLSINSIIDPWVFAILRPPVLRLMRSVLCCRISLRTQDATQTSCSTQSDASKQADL

As to `CCCCCCCCOC(=O)COc1cccc2c1C[C@H]1C[C@@H](O)[C@H](CC[C@@H](O)CCCCC)[C@H]1C2` [Compound C8-TR, treprostinil octyl ester], the “Rate of treprostinil alkyl ester conversion” value in series [1] is reported as 32.5 nmOL/h * g of protein. The EC50 at EP2 prostanoid receptor (setting [2]) amounted to 1.41 µM; at EP2 prostanoid receptor (setting [3]), 1.4 µM; at EP2 prostanoid receptor (setting [4]), 1.09 µM; on EP2 prostanoid receptor (setting [5]) it was 3.69 µM; at EP2 prostanoid receptor (setting [6]) it was 3.39 µM; on EP2 prostanoid receptor (setting [7]), 1.69 µM. The 50% effective concentration (EC50) amounted to 1.42 µM at EP2 prostanoid receptor (setting [8]), 1.53 µM at EP2 prostanoid receptor (setting [9]), 1.4 µM at EP2 prostanoid receptor (setting [10]) and 1.34 µM on EP2 prostanoid receptor (setting [11]).
In the case of `CCCCCCCCCCCCOC(=O)COc1cccc2c1C[C@H]1C[C@@H](O)[C@H](CC[C@@H](O)CCCCC)[C@H]1C2` [Compound C12-TR, dodecyl-treprostinil], the “Rate of treprostinil alkyl ester conversion” value in series [1] was 1.1 nmOL/h * g of protein. Further, the half-maximal effective concentration (EC50) at EP2 prostanoid receptor (setting [2]) was 3.17 µM; on EP2 prostanoid receptor (setting [3]) it was 3.25 µM; on EP2 prostanoid receptor (setting [4]), 2.9 µM; on EP2 prostanoid receptor (setting [5]), 4.98 µM; at EP2 prostanoid receptor (setting [6]), 5.35 µM; at EP2 prostanoid receptor (setting [7]) it was 4.54 µM. The EC50 worked out at 4.07 µM on EP2 prostanoid receptor (setting [8]), 3.13 µM on EP2 prostanoid receptor (setting [9]), 2.94 µM on EP2 prostanoid receptor (setting [10]) and 3.17 µM on EP2 prostanoid receptor (setting [11]). In addition, the adverse clinical signs result in the series on beagle dogs is “Adverse clinical signs were seen”. Also, the solubility at 24 h in “physchem” (Solubility in HFA-134a with added ethanol) and in “physchem” (Solubility in HFA-227 with added ethanol) was greater than 1000 µg/mL throughout.
